According to US9617244B2, “Antibacterial quinoline derivatives” (JANSSEN PHARMACEUTICA NV, priority 2012, dated 2017):
Values after ≈ are worked out from the molar mass of the structure shown.

Assays:
[1] = test system: Mycobacterium smegmatis (ATCC607); experiment: In-vitro anti-bacterial activity against strain M. Smegmatis ATCC607; type: cell-based; details: 90% inhibitory concentration for bacterial growth, Alamar Blue fluorescence; for IC90 MSM 607: 48 hours; for IC90: Mycolicibacterium smegmatis, ATCC607, 48 h, read-out: IC90 MSM 607
How it was run: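 Serial five-fold compound dilutions in BSA-supplemented wells, inoculated with ~250 CFU/well in Mueller-Hinton broth, incubated 48 h at 37 °C, 5% CO2. Growth read by Alamar Blue fluorescence (ex 530/em 590 nm); IC90 in μg/ml.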

[2] = test system: Staphylococcus aureus (ATCC29213); experiment: In-vitro anti-bacterial activity, microtitre plate assay, IC90 determination (non-mycobacterial strains); type: cell-based; details: 90% inhibitory concentration for bacterial growth, resazurin fluorescence; for IC90 STA B29213: 24 hours; for IC90: Staphylococcus aureus, ATCC29213, 24 h, read-out: IC90 STA B29213
How it was run: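 Inoculum of about 100 TCID50 (10–60 CFU/well) in Mueller-Hinton broth, serial five-fold compound dilutions, 24 h at 37 °C in air. Growth read by resazurin fluorescence (ex 530/em 590 nm); IC90 in μg/ml as 90% growth inhibition.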

SMILES | melting point [°C] | IC90 MSM 607 [1] [µg/mL] | IC90 STA B29213 [2] [µg/mL] | IC90 [2] [µg/mL] | IC90 [1] [µg/mL]
COc1nc2ccc(Br)cc2cc1C(c1ccc(Cl)cc1)C1(O)CCNC(Cc2ccc(F)cc2)C1 (stereo not drawn) [Compound 356] | 98 | 1.80 (≈ 3.16 µM) | 1.80 (≈ 3.16 µM) |  | 
COc1nc2ccc(Br)cc2cc1C(c1ccc(Cl)cc1)C1(O)CCNC(Cc2ccc(F)cc2)C1 (stereo not drawn) [Compound 357] | 104 | 3.60 (≈ 6.32 µM) | 5.70 (≈ 10 µM) |  | 
COc1nc2ccc(Br)cc2cc1C(c1ccc(Cl)cc1)C1(O)CCNC(Cc2ccc(F)cc2)C1 (stereo not drawn) [Compound 358] | 138 | 1.43 (≈ 2.51 µM) | 3.60 (≈ 6.32 µM) |  | 
COc1nc2ccc(Cl)cc2cc1C(c1ccc(S(C)(=O)=O)cc1)C1(O)CCNC(c2ccc(F)cc2C)C1 (stereo not drawn) [Compound 366] | 146 | 3.59 (≈ 6.31 µM) | 7.16 (≈ 12.6 µM) |  | 
COc1nc2ccc(Cl)cc2cc1C(c1ccc(S(C)(=O)=O)cc1)C1(O)CCNC(c2ccc(F)cc2C)C1 (stereo not drawn) [Compound 367] | 175 | 5.69 (≈ 10 µM) | 7.16 (≈ 12.6 µM) |  | 
C=CC1CC(O)(C(c2ccc(Cl)cc2)c2cc3cc(Br)ccc3nc2OC)CCN1 (stereo not drawn) [Compound 371] | 158 | 2.44 (≈ 5 µM) |  | 3.08 (≈ 6.31 µM) | 
C=CC1CC(O)(C(c2ccc(Cl)cc2)c2cc3cc(Br)ccc3nc2OC)CCN1 (stereo not drawn) [Compound 372] | 194 | 3.08 (≈ 6.31 µM) | 6.14 (≈ 12.6 µM) |  | 
C=CC1CC(O)(C(c2ccc(Cl)cc2)c2cc3cc(Br)ccc3nc2OC)CCN1 (stereo not drawn) [Compound 373] | 193 | 3.08 (≈ 6.31 µM) | 3.08 (≈ 6.31 µM) |  | 
C=CC1CC(O)(C(c2ccc(Cl)cc2)c2cc3cc(Br)ccc3nc2OC)CCN1 (stereo not drawn) [Compound 374] | 162 | 1.23 (≈ 2.52 µM) | 3.08 (≈ 6.31 µM) |  | 
COc1nc2ccc(S(=O)(=O)C(C)C)cc2cc1C(c1ccc(Cl)cc1)C1(O)CCNC(Cc2ccccc2)C1 (stereo not drawn) [Compound 386] | 125 | 2.90 (≈ 5.01 µM) | 3.65 (≈ 6.3 µM) |  | 
COc1nc2ccc(S(=O)(=O)C(C)C)cc2cc1C(c1ccc(Cl)cc1)C1(O)CCNC(Cc2ccccc2)C1 (stereo not drawn) [Compound 387] | 204 | 7.29 (≈ 12.6 µM) | 14.55 (≈ 25.1 µM) |  | 
COc1nc2ccc(S(C)(=O)=O)cc2cc1C(c1ccc(Cl)cc1)C1(O)CCNC(Cc2ccc(F)cc2)C1 (stereo not drawn) [Compound 388] | 103 | 3.59 (≈ 6.31 µM) | 1.80 (≈ 3.16 µM) |  | 
COc1nc2ccc(S(C)(=O)=O)cc2cc1C(c1ccc(Cl)cc1)C1(O)CCNC(Cc2ccc(F)cc2)C1 (stereo not drawn) [Compound 389] | 128 | 7.16 (≈ 12.6 µM) | 7.16 (≈ 12.6 µM) |  | 
COc1nc2ccc(S(C)(=O)=O)cc2cc1C(c1ccc(Cl)cc1)C1(O)CCNC(Cc2ccc(F)cc2)C1 (stereo not drawn) [Compound 390] | 170 | 11.36 (≈ 20 µM) | 14.30 (≈ 25.1 µM) |  | 
COc1nc2ccc(S(C)(=O)=O)cc2cc1C(c1ccc(Cl)cc1)C1(O)CCNC(Cc2ccc(F)cc2)C1 (stereo not drawn) [Compound 391] | 120 | 1.80 (≈ 3.16 µM) | 3.59 (≈ 6.31 µM) |  | 
C=CCC1CNCCC1(O)C(c1ccc(Cl)cc1)c1cc2cc(Br)ccc2nc1OC (stereo not drawn) [Compound 392] | 162 to 164 |  |  | 6.32 (≈ 12.6 µM) | 3.17 (≈ 6.32 µM)
C=CCC1CNCCC1(O)C(c1ccc(Cl)cc1)c1cc2cc(Br)ccc2nc1OC (stereo not drawn) [Compound 393] | 159 to 161 | 6.32 (≈ 12.6 µM) | 10.01 (≈ 19.9 µM) |  | 
C=CCC1CNCCC1(O)C(c1cccc(Cl)c1)c1cc2cc(Cl)ccc2nc1OC (stereo not drawn) [Compound 395] | 150 to 152 | 2.89 (≈ 6.32 µM) | 5.76 (≈ 12.6 µM) |  | 
COc1nc2ccc(S(C)(=O)=O)cc2cc1C(c1ccc(Cl)cc1)C1(O)CCNCC1(C)C (stereo not drawn) [Compound 397] | 180 |  |  | > 12.3 | > 12.3
COc1nc2ccc(F)cc2cc1C(c1ccc(SC)cc1)C1(O)CCNC(c2ccc(F)cc2C)C1 (stereo not drawn) [Compound 406] | 206 | 2.61 (≈ 5.01 µM) |  | 3.29 (≈ 6.32 µM) | 
COc1nc2ccc(F)cc2cc1C(c1ccc(S(C)(=O)=O)cc1)C1(O)CCNC(c2ccc(F)cc2C)C1 (stereo not drawn) [Compound 417] | 150 |  |  | > 13.9 | > 13.9
COc1nc2ccc(F)cc2cc1C(c1ccc(S(C)(=O)=O)cc1)C1(O)CCNC(c2ccc(F)cc2C)C1 (stereo not drawn) [Compound 419] | 154 | 11.03 (≈ 20 µM) | 11.03 (≈ 20 µM) |  | 
COc1nc2ccc(Cl)cc2cc1C(c1ccc(Cl)cc1)C1(O)CCNCC1C (stereo not drawn) [Compound 423] | 174 | 3.43 (≈ 7.95 µM) | 5.43 (≈ 12.6 µM) |  | 

Results, then the molecule that gave them:

melting point [°C] | IC90 MSM 607 [1] [µg/mL] | IC90 STA B29213 [2] [µg/mL] | IC90 [2] [µg/mL] | IC90 [1] [µg/mL] | SMILES
125 |  |  | > 11.1 | > 11.1 | COc1nc2ccc(Br)cc2cc1C(c1ccccc1)C1(O)CCNCC1C (stereo not drawn) [Compound 425]
174 | >11.09 | >11.09 |  |  | COc1nc2ccc(Br)cc2cc1C(c1ccccc1)C1(O)CCNCC1C (stereo not drawn) [Compound 426]
114 |  | 6.40 (≈ 12.6 µM) |  | 4.04 (≈ 7.95 µM) | COc1nc2ccc(Cl)cc2cc1C(c1ccc(Cl)cc1)C1(O)CCNCC1Cc1ccccn1 (stereo not drawn) [Compound 433]
197 | 3.21 (≈ 6.31 µM) | 3.21 (≈ 6.31 µM) |  |  | COc1nc2ccc(Cl)cc2cc1C(c1ccc(Cl)cc1)C1(O)CCNCC1Cc1ccccn1 (stereo not drawn) [Compound 434]
140 |  |  | 5.63 (≈ 12.6 µM) | 3.99 (≈ 8.92 µM) | COc1nc2ccc(Cl)cc2cc1C(c1ccc(Cl)cc1)C1(O)CCNC(CO)C1 (stereo not drawn) [Compound 435]
210 |  | 10.89 (≈ 25.1 µM) |  | 5.46 (≈ 12.6 µM) | O=c1[nH]c2ccc(Cl)cc2cc1C(c1ccc(Cl)cc1)C1(O)CCNC(CO)C1 (stereo not drawn) [Compound 446]
234 | >14.27 | >14.27 |  |  | COc1nc2ccc(S(C)(=O)=O)cc2cc1C(c1ccc(Cl)cc1)C1(O)CCNCC1Cc1cccc[n+]1[O-] (stereo not drawn) [Compound 447]
182 | >14.27 | >14.27 |  |  | COc1nc2ccc(S(C)(=O)=O)cc2cc1C(c1ccc(Cl)cc1)C1(O)CCNCC1Cc1cccc[n+]1[O-] (stereo not drawn) [Compound 448]
190 | 2.75 (≈ 6.32 µM) | 5.48 (≈ 12.6 µM) |  |  | COc1nc2ccc(Cl)cc2cc1C(c1ccc(Cl)cc1)C1(O)CCNCC1F (stereo not drawn) [Compound 449]
200 | 4.35 (≈ 9.99 µM) | 8.69 (≈ 20 µM) |  |  | COc1nc2ccc(Cl)cc2cc1C(c1ccc(Cl)cc1)C1(O)CCNCC1F (stereo not drawn) [Compound 450]
110 | 2.18 (≈ 5.01 µM) | 5.48 (≈ 12.6 µM) |  |  | COc1nc2ccc(Cl)cc2cc1C(c1ccc(Cl)cc1)C1(O)CCNCC1F (stereo not drawn) [Compound 451]
114 | 4.35 (≈ 9.99 µM) | 9.75 (≈ 22.4 µM) |  |  | COc1nc2ccc(Cl)cc2cc1C(c1ccc(Cl)cc1)C1(O)CCNCC1F (stereo not drawn) [Compound 452]
210 | 2.75 (≈ 6.32 µM) |  | 5.48 (≈ 12.6 µM) |  | COc1nc2ccc(Cl)cc2cc1C(c1ccc(Cl)cc1)C1(O)CCNCC1F (stereo not drawn) [Compound 453]
186 | 4.35 (≈ 9.99 µM) | 10.94 (≈ 25.1 µM) |  |  | COc1nc2ccc(Cl)cc2cc1C(c1ccc(Cl)cc1)C1(O)CCNCC1F (stereo not drawn) [Compound 454]
118 | 5.48 (≈ 12.6 µM) | 7.74 (≈ 17.8 µM) |  |  | COc1nc2ccc(Cl)cc2cc1C(c1ccc(Cl)cc1)C1(O)CCNCC1F (stereo not drawn) [Compound 455]
115 | 10.94 (≈ 25.1 µM) | 10.94 (≈ 25.1 µM) |  |  | COc1nc2ccc(Cl)cc2cc1C(c1ccc(Cl)cc1)C1(O)CCNCC1F (stereo not drawn) [Compound 456]
211 | 3.70 (≈ 6.3 µM) | 13.14 (≈ 22.4 µM) |  |  | COc1nc2ccc(S(C)(=O)=O)cc2cc1C(c1ccc(Cl)cc1)C1(O)CCNC(c2ccc3ccccc3c2)C1 (stereo not drawn) [Compound 459]
197 | 1.86 (≈ 3.17 µM) | 3.70 (≈ 6.3 µM) |  |  | COc1nc2ccc(S(C)(=O)=O)cc2cc1C(c1ccc(Cl)cc1)C1(O)CCNC(c2ccc3ccccc3c2)C1 (stereo not drawn) [Compound 460]
208 | 1.47 (≈ 2.5 µM) | 2.62 (≈ 4.46 µM) |  |  | COc1nc2ccc(S(C)(=O)=O)cc2cc1C(c1ccc(Cl)cc1)C1(O)CCNC(c2ccc3ccccc3c2)C1 (stereo not drawn) [Compound 461]
192 | 0.93 (≈ 1.58 µM) | 1.86 (≈ 3.17 µM) |  |  | COc1nc2ccc(S(C)(=O)=O)cc2cc1C(c1ccc(Cl)cc1)C1(O)CCNC(c2ccc3ccccc3c2)C1 (stereo not drawn) [Compound 462]
160 | 2.34 (≈ 3.99 µM) | 14.75 (≈ 25.1 µM) |  |  | COc1nc2ccc(S(C)(=O)=O)cc2cc1C(c1ccc(Cl)cc1)C1(O)CCNC(c2ccc3ccccc3c2)C1 (stereo not drawn) [Compound 463]
